Experimental data published in patent US20090082429A1, “Antimicrobial Compositions and Methods of Use” (priority 2003, published 2009).
In brackets after ≈: the same amount, converted by molar mass. Entries after “also recorded” stand apart in the source; their conditions may differ. Where two headings read alike, the source gives them in different places.

Assays:
[1] = tested on: staphylococcal; details: stated or reported, no test in the patent; cited from earlier work
[2] = tested on: S. aureus BB568; assay: Minimum inhibitory concentration (MIC) testing in 96-well microtitre trays; format: cell-based
From the text: (§1) Reagents and bacterial strains: 3-O-(−)-epicatechingallate and (+)-catechin were provided by the Tokyo Food Techno Co., Tokyo, Japan. Octanoic acid and oxacillin were purchased from Sigma (Poole, United Kingdom). The acyl-(+)-catechin derivatives and octanoyl-(−)-epicatechin were synthesised as outlined below. S. aureus BB568 (COL-type strain that carries mecA and pT181) and BB551 (methicillin-sensitive) were provided by Professor B. Berger-Baechi. EMRSA-15 and EMRSA-16 were clinical isolates from the Royal Free Hospital, London. Strains of S. aureus can be considered resistant to methicillin in which growth occurs in the presence of 8 microgram/ml methicillin (National Committee for Clinical Laboratory Standards, 1990—Methods for dilution antimicrobial susceptibility tests for bacteria that grow aerobically (second edition). Document M7-A2. NCCLS, Villanova, Pa., U.S.A.).
(§2) S. aureus ATCC29213 was used as the standard.

[3] = tested on: EMRSA-16; assay: as above; format: cell-based, S. aureus
From the text: as §1, §2

[4] = tested on: EMRSA-15; assay: as above; format: cell-based, S. aureus
From the text: as §1, §2

[5] = tested on: S. aureus; assay: MIC testing, summary over the three strains tested; format: cell-based
From the text: as §1, §2

[6] = tested on: EMRSA-16; assay: Bacterial membrane damage (BacLight kit, SYTO 9/propidium iodide) and CFU after 10 min exposure; format: cell-based, S. aureus; details: for Membrane Effect % Control (BacLight) / Delta Log 10 (CFU/ml): 10 min exposure; for Delta Log 10 (CFU/ml): Log10 decrease vs control
Protocol: Bacterial membrane damage: EMRSA-16 was grown overnight in Mueller-Hinton broth at 37° C. The overnight culture was diluted 1:40 into fresh pre-warmed Mueller-Hinton broth and the diluted culture incubated at 37° C., with aeration (200 rpm), until the optical density at 600 nm (OD600) reached 0.7-0.8. The cells were recovered by centrifugation (10.000×g for 10 min), washed once with filtered-sterilized water, and resuspended to 1:10 the original volume in filter-sterilized water. The culture was further diluted 1:20 into water containing ethanol (1 vol %; the solvent was used to dissolve the compounds) or water containing the catechin. The cells were exposed to the compounds for 10 min (at room temperature and gentle shaking), after which a sample was removed for CFU determination and the remainder of the cells were recovered by centrifugation (10.000×g for 10 min). The cell pellet was washed once with water and then resuspended to an OD670 of 0.15.
Damage to the bacterial cytoplasmic membrane was determined with the reagents (SYTO 9 and propidium iodide) contained in the BacLight kit from Molecular Probes Europe BV (Leiden, The Netherlands). An equal mixture (4.5 microliter each) of SYTO 9 dye and propidium iodide was added to 3 ml of sample in a cuvette and the sample mixed by inversion of the cuvette three times. The sample was maintained in the dark for 15 min and the fluorescence of the two dyes was determined with a spectrofluorometer (Jacso FP-750). Both dyes were excited with a wavelength of 485 nm and the emission of SYTO 9 was read at 530 nm (Em1) and propidium iodide was read at 645 nm (Em2). The ratio of SYTO 9 to propidium iodide emissions (R=Em1/Em2) was expressed as a percentage of the control (BacLight value=[Rsample/Rcontrol]×100). The sample removed for CFU determination was serially diluted in 0.1M phosphate-buffered saline (pH 7.4) then plated onto nutrient agar. The number of colonies on the plates was recorded after 24 h incubation at 37° C. and the results expressed as a Log10 decrease in CFU/ml compared to the control sample.
Staphylococcal membrane damage: Damage to the staphylococcal cytoplasmic membrane was assessed by use of the BacLight kit (Molecular Probes Inc.). The kit makes use of two nucleic acid stains, SYTO-9 and propidium iodide, with different spectral properties and abilities to penetrate intact bacterial membranes. SYTO-9 penetrates both intact and damaged membranes while propidium iodide only penetrates damaged membranes. Cells with intact membranes stain fluorescent green while cells with damaged membranes stain fluorescent red. The ratios of green to red fluorescence, for EMRSA-16 exposed to test compounds, are expressed as a percentage of the control and are given in the table below.

[7] = tested on: Erythrocytes from defibrinated Horse blood; assay: Erythrocyte haemolysis; format: cell-based; details: 10 min
Protocol: Erythrocyte haemolysis: Erythrocytes from defibrinated Horse blood (Oxoid) were collected by centrifugation (6,000×g, 3 min) and washed three to four times in 10 mM Tris-HCI (pH 7.4) containing 0.9% NaCI. The erythrocytes were resuspended to 1% in the wash buffer and 200 microliter of cells was added to 1300 microliter of buffer containing the test compound. The sample was mixed gently for 10 min at room temperature and the intact erythrocytes were removed by centrifugation (6,000×g, 3 min). Haemolysis was evaluated by measuring the absorbance of the supernatant at 540 nm. Cells were added to buffer containing 0.5% NH4OH to give an indication of 100% lysis. The results were expressed as a percentage of absorbance reading for 100% lysis. Buffer containing only washed erythrocytes was used to assess the extent of lysis in the absence of the test compound.
Hemolysis: The amount hemoglobin released from horse blood erythrocytes after exposure to the compounds for 10 min was used to assess the effect of the compounds on eukaryotic membranes.

[8] = tested on: EMRSA-16; assay: Effect on bacterial growth (viable counts, CFU/ml); format: cell-based, S. aureus; details: for reduction in cell numbers: over six hours
Protocol: Effect on bacterial growth: EMRSA-16 was grown overnight in Mueller-Hinton broth at 37° C. The overnight culture as diluted 1:400 into 50 ml volumes of pre-warmed (37° C.) Mueller-Hinton broth containing various concentrations of contemplated compounds. The control flask contained ethanol (1 vol %). The flasks were incubated at 37° C. with aeration (200 rpm). At two-hour intervals samples were withdrawn from the flasks, serially diluted in 0.1M phosphate-buffered saline (pH 7.4) solutions, and plated onto nutrient agar (Oxoid). The number of colonies was recorded at 24 h incubation at 37° C. and expressed as the number of CFU/ml.

[9] = tested on: S. aureus BB551; assay: Electron microscopy, effect on cell wall morphology; format: cell-based; details: grown overnight in the presence of the compound; electron micrograph
Protocol: Electron microscopy: S. aureus BB551 was grown overnight at 37° C. in Mueller-Hinton broth in the absence and presence of either epicatechin-(−)-gallate or octanoyl-(+)-catechin. The cells were recovered by centrifugation and washed once in 0.1M phosphate-buffered saline, pH 7.4. Cells were fixed in 1.5% glutaraldehyde for at least 2 h at room temperature, treated with osmium tetroxide and embedded in epoxy resin. Sectioning and staining with uranyl acetate was followed by Reynolds' lead citrate. The ultrathin sections were viewed and photographed using a Philips 201 transmission electron microscope.

[10] = BB568; MIC of the compound itself; 35° C., 24 h
[11] = BB568; oxacillin MIC in the presence of the compound (tested at 0.25×MIC)
[12] = EMRSA-16; MIC of the compound itself; 35° C., 24 h
[13] = EMRSA-16; oxacillin MIC in the presence of the compound (tested at 0.25×MIC)
[14] = EMRSA-15; MIC of the compound itself; 35° C., 24 h
[15] = EMRSA-15; oxacillin MIC in the presence of the compound (tested at 0.25×MIC)
[16] = Staphylococcus aureus, 24 h, read-out: MIC Catechin
[17] = Staphylococcus aureus, 24 h; read-out: MIC Catechin

CCCCCCCCCC=CCCCCC(=O)O (single isomer, unassigned) [palmitoleic acid isomer (C16:1delta6)]
anti-staphylococcal activity [1]: anti-staphylococcal activity

CCCCCCCCCCCCCCCCCC(=O)O[C@H]1Cc2c(O)cc(O)cc2O[C@@H]1c1ccc(O)c(O)c1 [3-O-staeoryl-(+)-catechin, 3-O-stearoyl-(+)-catechin]
MIC Catechin [2, 10]: 32 MICROGRAM/ML | MIC Oxacillin [2, 11]: 256 MICROGRAM/ML | MIC Catechin [3, 12]: >32 MICROGRAM/ML | MIC Oxacillin [3, 13]: 512 MICROGRAM/ML | MIC Catechin [4, 14]: >32 MICROGRAM/ML | MIC Oxacillin [4, 15]: 32 MICROGRAM/ML

Oc1cc(O)c2c(c1)O[C@H](c1ccc(O)c(O)c1)[C@@H](O)C2 [(+)-catechin]
MIC Catechin [2, 10]: >256 MICROGRAM/ML | MIC Oxacillin [2, 11]: 256 MICROGRAM/ML | MIC ([5]; the three strains tested): > 256 microgram/ml | MIC Catechin [3, 12]: >256 MICROGRAM/ML | MIC Oxacillin [3, 13]: 512 MICROGRAM/ML | MIC Catechin [4, 14]: >256 MICROGRAM/ML | MIC Oxacillin [4, 15]: 32 MICROGRAM/ML

O=C(O[C@@H]1Cc2c(O)cc(O)cc2O[C@@H]1c1ccc(O)c(O)c1)c1cc(O)c(O)c(O)c1 [(−)-epicatechingallate, 3-O-(−)-epicatechingallate]
MIC Oxacillin [2, 11]: <1 MICROGRAM/ML | MIC Oxacillin ([2]; BB568; oxacillin MIC in the presence of the compound (tested at 0.25×MIC); listed as epicatechin gallate): less than 1 MICROGRAM/ML | MIC ([2]; Staphylococcus aureus, BB568, 24 h, read-out: MIC Catechin): 128 µg/mL (≈ 289 µM) | effect on cell viability ([6]; 4× and 8×MIC, 10 min): little effect on cell viability | membrane permeability ([6]; 4×MIC): 48% | membrane permeability ([6]; 8×MIC): 64% | Membrane Effect % Control (BacLight) ([6]; 512 mcg/ml): 48% | Delta Log 10 (CFU/ml) ([6]; 512 mcg/ml): 0.0 | Membrane Effect % Control (BacLight) ([6]; 1024 mcg/ml): 64% | Delta Log 10 (CFU/ml) ([6]; 1024 mcg/ml): 0.1 | hemolysis ([7]; 4×MIC): did not give rise to hemolysis | hemolysis ([7]; 8×MIC): 21% | % Hemolysis ([7]; 512 mcg/ml): 6% | % Hemolysis ([7]; 1024 mcg/ml): 21% | reduction in cell numbers ([8]; 512 microgram/ml): 0.3 Log10 | reduction in cell numbers ([8]; 1024 microgram/ml): 0.85 Log10 | reduction in CFU/ml ([8]; 1024 microgram/ml, over the 24 h period): 5 Log10 | reduction in viable cell numbers ([8]; over the first two hour period, even at 8×MIC): did not give rise to a large reduction in viable cell numbers | effect on cell wall morphology [9]: pseudomulticellular aggregates with increased cell wall thickening | MIC ([5]; Staphylococcus aureus): 64 to 128 µg/mL (≈ 145 to 289 µM) | direct antistaphylococcal activity relative to (+)-catechin ([5]; greater activity than (+)-catechin): at least 4 fold | MIC Oxacillin [3, 13]: 1 MICROGRAM/ML | MIC [3, 16]: 128 µg/mL (≈ 289 µM) | MIC Oxacillin [4, 15]: 1 MICROGRAM/ML | MIC [4, 16]: 128 µg/mL (≈ 289 µM)

O=C(O)c1cc(O)c(O)c(O)c1 [Gallic acid]
anti-staphylococcal activity [1]: no anti-staphylococcal activity

CCCCCCCC(=O)O [Octanoic acid]
MIC Oxacillin [2, 11]: 256 MICROGRAM/ML | MIC ([2]; Staphylococcus aureus, BB568, 24 h; read-out: MIC Catechin): 1020 µg/mL (≈ 7100 µM) | concentration giving significant membrane damage [6]: > 1024 microgram/ml | Membrane Effect % Control (BacLight) ([6]; 16 mcg/ml): 74% | Delta Log 10 (CFU/ml) ([6]; 16 mcg/ml): −0.1 | Membrane Effect % Control (BacLight) ([6]; 32 mcg/ml): 75% | Delta Log 10 (CFU/ml) ([6]; 32 mcg/ml): 0.1 | Membrane Effect % Control (BacLight) ([6]; 64 mcg/ml): 2% | Delta Log 10 (CFU/ml) ([6]; 64 mcg/ml): >7.0 | hemolysis ([7]; 2×MIC): complete hemolysis | % Hemolysis ([7]; horse, 16 mcg/ml, pH 7.4): 3% | % Hemolysis ([7]; horse, 32 mcg/ml, pH 7.4): 4% | % Hemolysis ([7]; horse, 64 mcg/ml, pH 7.4): 100% | direct activity against S. aureus ([5]; result in words): no direct activity; also recorded: not active | capacity to reduce the oxacillin MIC ([5]; tested at 0.25×MIC): two-fold | MIC Oxacillin [3, 13]: 512 MICROGRAM/ML | MIC [3, 17]: 1020 µg/mL (≈ 7100 µM) | MIC Oxacillin [4, 15]: 32 MICROGRAM/ML | MIC [4, 17]: 1020 µg/mL (≈ 7100 µM)

Cc1onc(-c2ccccc2)c1C(=O)N[C@@H]1C(=O)N2[C@@H]1SC(C)(C)[C@@H]2C(=O)O [Oxacillin, oxacillin]
MIC ([2]; Staphylococcus aureus; BB568; oxacillin alone; read-out: MIC Oxacillin): 256 µg/mL (≈ 638 µM) | MIC ([3]; Staphylococcus aureus; EMRSA-16; oxacillin alone; read-out: MIC Oxacillin): 512 µg/mL (≈ 1280 µM) | MIC ([4]; Staphylococcus aureus; EMRSA-15; oxacillin alone; read-out: MIC Oxacillin): 32 µg/mL (≈ 79.7 µM)

CCCCCCCCCCCC(=O)O [dedecanoic acid, dedecanoic acid (lauric acid) (C12:0)]
anti-staphylococcal activity [1]: anti-staphylococcal activity

CCCCC/C=C\C/C=C\CCCCCCCC(=O)O [linoleic acid, linoleic acid (C18:8)]
anti-staphylococcal activity [1]: anti-staphylococcal activity
